Laboratory results: patent publication US9556437B2, “FAT1 gene in cancer and inflammation” (DEPARTMENT OF BIOTECHNOLOGY (DBT), priority 2012, dated 2017)

Key:
[1] = test system: colon, esophageal and pancreatic carcinoma cell lines; conditions: Tsujii 1998, Zimmermann 1999, Molina 1999; cited from earlier work
U87MG cells [2] = assay: In vitro Scratch Assay of cell migration; format: cell-based, human
Description: FIGS. 14A to 14D: Effect of NS-398 and FAT1 knockdown simultaneously on Cell Migration by In-vitro Scratch Assay. The in vitro Scratch Assay was performed at 72 hours after culturing cells as follows: At Day 0, 5,000 U87MG cells are plated per well of a 96 well plate. […] (C) Assay of cell migration by the Modified Boyden Chamber Assay under conditions of normoxia and hypoxia. (D) Quantitation of data from (C).
The Scratch Assay is performed at 72 hours after treatment. A scratch is made on the culture surface using a sterile 10 μl tip and cells were allowed to grow. Images were captured after every 3 hrs to monitor the closure of the wound in the culture surface for next 24 hrs.

[3] = test system: colorectal and lung carcinoma cell lines; conditions: Elder 1997, Liu 1998; cited from earlier work
COX-2 promoter = COX-2 promoter luciferase assay; format: cell-based, human; conditions: U87MG
Description: AP-1 and COX-2 Promoter Luciferase Assay: U87MG cells (40000 cells/well) were plated in 6-well plates in triplicate on day zero. On day 1, cells were transfected with siFAT1 and siControl. On day 2 cells were transiently transfected with 4×AP-1-luciferase reporter plasmids as described previously. Cells were transfected with 1 μg of AP-17× luciferase reporter plasmid, along with 50 ng of pRL-TK (Renilla luciferase) control plasmid using LIPOFECTAMINE2000 as the transfection reagent. After 48 hrs, the cells were lysed by 1× passive-lysis-buffer (Promega, Madison, Wis., USA) and assayed for luciferase activity as previously described. For COX-2 luciferase assay U87MG cells were transfected with siFAT1 and siControl on day 1 and after 4 hrs incubation were treated with 10 μM SR11302. On day2 cells were transiently transfected with COX-2 reporter plasmid and again treated with 10 μM SR11302. After 48 hrs, the cells were assayed for luciferase activity.

U87MG cells [4] = assay: Toxicity of SR11302 to cells; format: cell-based, human; conditions: 10 μM
Description: FIG. 11: Dose response curve of SR11302; U87MG cells were treated with increasing concentration of SR11302 from 0.1 μM to 10 μM.

| Structure (SMILES) | growth of carcinoma cell lines [1] | inhibition of cell migration (U87MG cells [2]; Scratch Assay at 72 hours after treatment) | effect on migration under hypoxic versus normoxic culture (U87MG cells [2]; hypoxic conditions) | migration ability of cells (U87MG cells [2]; scratch and modified Boyden chamber assays, normoxic or hypoxic conditions (FIG. 14)) | apoptosis [3] | proliferation [3] | dose response of COX-2 luciferase activity (COX-2 promoter; 0.1 μM to 10 μM) | decrease in COX-2 luciferase activity (COX-2 promoter; vs siControl+DMSO, SR11302 10 μM, 48 hrs) [fold] | toxicity to the cells (U87MG cells [4]) |
| --- | --- | --- | --- | --- | --- | --- | --- | --- | --- |
| CS(=O)(=O)Nc1ccc([N+](=O)[O-])cc1OC1CCCCC1 [NS398] | growth-inhibitory effects | about 70% | more pronounced | reduced | induce apoptosis | inhibit proliferation | – | – | – |
| CC1=C(/C=C/C(=C/C=C/C(C)=C/C(=O)O)c2ccc(C)cc2)C(C)(C)CCC1 [SR11302] | – | – | – | – | – | – | dose dependent decrease | 5 | No toxicity |
